Source: ChEMBL document CHEMBL1155237, “Selective inhibitors of the mutant B-Raf pathway: discovery of a potent and orally bioavailable aminoisoquinoline” (J Med Chem, 2009)

Experiments:
[1] = biological target: Mitogen-activated protein kinase kinase kinase kinase 1 (Homo sapiens) (UniProt Q92918); assay: Inhibition of MAP4K1 assessed as enzyme activity at 1 uM relative to untreated control; set-up: scale not given: the % may be the effect or the level left
[2] = biological target: Casein kinase II subunit alpha (Homo sapiens) (UniProt P68400); assay: Inhibition of CSNK2A1 assessed as enzyme activity at 1 uM relative to untreated control; set-up: scale not given: the % may be the effect or the level left
[3] = biological target: Mitogen-activated protein kinase kinase kinase 7 (Homo sapiens) (UniProt O43318); assay: Inhibition of TAK1 assessed as enzyme activity at 1 uM relative to untreated control; set-up: scale not given: the % may be the effect or the level left
[4] = biological target: Epidermal growth factor receptor (Homo sapiens) (UniProt P04626+P00533+Q15303+P21860); assay: Inhibition of EGFR L747-T751del,Sins mutant assessed as enzyme activity at 1 uM relative to untreated control; assay type: protein assay; set-up: scale not given: the % may be the effect or the level left
[5] = biological target: Tyrosine-protein kinase Fgr (Homo sapiens) (UniProt P09769); assay: Inhibition of FGR assessed as enzyme activity at 1 uM relative to untreated control; set-up: scale not given: the % may be the effect or the level left
[6] = biological target: Rho-associated protein kinase 2 (Homo sapiens) (UniProt O75116); assay: Inhibition of ROCK2 assessed as enzyme activity at 1 uM relative to untreated control; set-up: scale not given: the % may be the effect or the level left
[7] = biological target: Tyrosine-protein kinase JAK1 (Homo sapiens) (UniProt P23458); assay: Inhibition of JAK1 kinase domain 2 assessed as enzyme activity at 1 uM relative to untreated control; set-up: scale not given: the % may be the effect or the level left
[8] = biological target: Ribosomal protein S6 kinase alpha-5 (Homo sapiens) (UniProt O75582); assay: Inhibition of RPS6KA5 kinase domain 1 assessed as enzyme activity at 1 uM relative to untreated control; set-up: scale not given: the % may be the effect or the level left
[9] = biological target: Casein kinase I isoform epsilon (Homo sapiens) (UniProt P49674); assay: Inhibition of CSNK1E assessed as enzyme activity at 1 uM relative to untreated control; set-up: scale not given: the % may be the effect or the level left
Sequence of Casein kinase I isoform epsilon (Homo sapiens) (P49674 whole entry, looked up, canonical isoform): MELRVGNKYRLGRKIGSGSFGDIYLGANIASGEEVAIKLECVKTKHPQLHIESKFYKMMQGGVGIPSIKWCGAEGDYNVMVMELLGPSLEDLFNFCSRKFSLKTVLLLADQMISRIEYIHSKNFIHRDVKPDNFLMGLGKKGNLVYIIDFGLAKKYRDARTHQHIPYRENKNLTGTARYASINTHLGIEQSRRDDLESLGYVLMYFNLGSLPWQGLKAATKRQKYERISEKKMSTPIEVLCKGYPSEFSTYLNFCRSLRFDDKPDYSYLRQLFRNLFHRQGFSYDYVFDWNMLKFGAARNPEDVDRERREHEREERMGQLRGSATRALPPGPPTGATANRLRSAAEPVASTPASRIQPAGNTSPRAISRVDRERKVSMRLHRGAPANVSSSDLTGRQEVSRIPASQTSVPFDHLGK

[10] = Elimination half life in Sprague-Dawley rat at 2 mg/kg, iv and 5 mg/kg, po; assay type: ADME, organism-based; conditions: in vivo, read-out: beta t1/2 (converted)
[11] = biological target: Calcium/calmodulin-dependent protein kinase type 1 (Homo sapiens) (UniProt Q14012); assay: Inhibition of CAMK1 assessed as enzyme activity at 1 uM relative to untreated control; set-up: scale not given: the % may be the effect or the level left
[12] = system: Proto-oncogene tyrosine-protein kinase receptor Ret (Homo sapiens), P07949 [M918T]; assay: Inhibition of RET M918T mutant assessed as enzyme activity at 1 uM relative to untreated control; set-up: scale not given: the % may be the effect or the level left
[13] = biological target: Serine/threonine-protein kinase STK11 (Homo sapiens) (UniProt Q15831); assay: Inhibition of LKB1 assessed as enzyme activity at 1 uM relative to untreated control; set-up: scale not given: the % may be the effect or the level left
[14] = biological target: Serine/threonine-protein kinase PAK 6 (Homo sapiens) (UniProt Q9NQU5); assay: Inhibition of PAK6 assessed as enzyme activity at 1 uM relative to untreated control; set-up: scale not given: the % may be the effect or the level left
[15] = biological target: Calcium/calmodulin-dependent protein kinase type 1G (Homo sapiens) (UniProt Q96NX5); assay: Inhibition of CAMK1G assessed as enzyme activity at 1 uM relative to untreated control; set-up: scale not given: the % may be the effect or the level left
Sequence of Calcium/calmodulin-dependent protein kinase type 1G (Homo sapiens) (Q96NX5 whole entry): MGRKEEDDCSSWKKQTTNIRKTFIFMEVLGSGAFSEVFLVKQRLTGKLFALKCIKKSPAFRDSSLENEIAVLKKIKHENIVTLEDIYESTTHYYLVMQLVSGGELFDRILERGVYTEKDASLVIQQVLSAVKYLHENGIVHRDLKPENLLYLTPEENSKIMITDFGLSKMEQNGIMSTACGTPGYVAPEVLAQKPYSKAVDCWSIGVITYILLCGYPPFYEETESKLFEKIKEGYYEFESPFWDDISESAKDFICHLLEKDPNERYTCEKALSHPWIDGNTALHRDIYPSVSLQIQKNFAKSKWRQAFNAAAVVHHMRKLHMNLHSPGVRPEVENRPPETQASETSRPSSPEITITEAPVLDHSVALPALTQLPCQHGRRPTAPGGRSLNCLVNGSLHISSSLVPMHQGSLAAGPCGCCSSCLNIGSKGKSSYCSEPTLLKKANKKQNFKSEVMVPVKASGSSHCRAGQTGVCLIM

[16] = biological target: Serine/threonine-protein kinase ULK2 (Homo sapiens) (UniProt Q8IYT8); assay: Inhibition of ULK2 assessed as enzyme activity at 1 uM relative to untreated control; set-up: scale not given: the % may be the effect or the level left
[17] = system: Proto-oncogene tyrosine-protein kinase receptor Ret (Homo sapiens), P07949 [V804M]; assay: Inhibition of RET V804M mutant assessed as enzyme activity at 1 uM relative to untreated control; set-up: scale not given: the % may be the effect or the level left
[18] = biological target: Mitogen-activated protein kinase kinase kinase kinase 4 (Homo sapiens) (UniProt O95819); assay: Inhibition of MAP4K4 assessed as enzyme activity at 1 uM relative to untreated control; set-up: scale not given: the % may be the effect or the level left
Sequence of Mitogen-activated protein kinase kinase kinase kinase 4 (Homo sapiens) (O95819 2-1239 limits assumed): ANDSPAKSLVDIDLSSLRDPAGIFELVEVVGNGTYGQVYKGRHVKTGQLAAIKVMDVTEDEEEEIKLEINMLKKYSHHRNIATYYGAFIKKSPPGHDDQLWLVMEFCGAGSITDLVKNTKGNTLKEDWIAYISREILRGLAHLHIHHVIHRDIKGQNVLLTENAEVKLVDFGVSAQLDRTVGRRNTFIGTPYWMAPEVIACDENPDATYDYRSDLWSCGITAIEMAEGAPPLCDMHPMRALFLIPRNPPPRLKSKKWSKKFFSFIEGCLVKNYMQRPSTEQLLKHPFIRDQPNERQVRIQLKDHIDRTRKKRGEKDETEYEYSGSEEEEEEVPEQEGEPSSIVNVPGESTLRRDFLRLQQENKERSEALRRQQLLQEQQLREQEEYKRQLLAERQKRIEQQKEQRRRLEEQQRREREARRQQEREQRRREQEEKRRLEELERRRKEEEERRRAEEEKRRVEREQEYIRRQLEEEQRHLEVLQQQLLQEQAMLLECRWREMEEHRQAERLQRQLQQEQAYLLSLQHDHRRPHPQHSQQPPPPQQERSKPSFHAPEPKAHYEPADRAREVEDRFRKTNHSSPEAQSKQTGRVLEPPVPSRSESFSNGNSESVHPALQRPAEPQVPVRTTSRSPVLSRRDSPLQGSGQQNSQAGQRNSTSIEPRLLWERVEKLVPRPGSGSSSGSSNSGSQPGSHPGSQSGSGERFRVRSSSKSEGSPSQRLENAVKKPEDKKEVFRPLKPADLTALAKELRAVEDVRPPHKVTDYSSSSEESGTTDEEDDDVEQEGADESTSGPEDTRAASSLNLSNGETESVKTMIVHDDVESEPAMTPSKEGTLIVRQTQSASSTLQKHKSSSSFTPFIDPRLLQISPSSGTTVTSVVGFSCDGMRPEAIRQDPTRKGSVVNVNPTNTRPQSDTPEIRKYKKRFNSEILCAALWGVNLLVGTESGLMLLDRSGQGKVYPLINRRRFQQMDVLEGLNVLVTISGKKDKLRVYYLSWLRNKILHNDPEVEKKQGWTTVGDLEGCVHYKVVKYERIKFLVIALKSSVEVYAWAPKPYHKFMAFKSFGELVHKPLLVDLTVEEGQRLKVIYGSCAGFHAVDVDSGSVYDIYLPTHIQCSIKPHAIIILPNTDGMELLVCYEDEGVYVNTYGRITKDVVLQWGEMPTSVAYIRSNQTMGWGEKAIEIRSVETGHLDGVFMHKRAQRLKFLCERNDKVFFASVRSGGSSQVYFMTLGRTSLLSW

[19] = biological target: Mitogen-activated protein kinase kinase kinase kinase 3 (Homo sapiens) (UniProt Q8IVH8); assay: Inhibition of MAP4K3 assessed as enzyme activity at 1 uM relative to untreated control; set-up: scale not given: the % may be the effect or the level left
[20] = biological target: Dual specificity tyrosine-phosphorylation-regulated kinase 1B (Homo sapiens) (UniProt Q9Y463); assay: Inhibition of DYRK1B assessed as enzyme activity at 1 uM relative to untreated control; set-up: scale not given: the % may be the effect or the level left
[21] = biological target: TGF-beta receptor type-1 (Homo sapiens) (UniProt P36897); assay: Inhibition of TGFBR1 assessed as enzyme activity at 1 uM relative to untreated control; set-up: scale not given: the % may be the effect or the level left
[22] = biological target: Death-associated protein kinase 3 (Homo sapiens) (UniProt O43293); assay: Inhibition of DAPK3 assessed as enzyme activity at 1 uM relative to untreated control; set-up: scale not given: the % may be the effect or the level left
[23] = biological target: Platelet-derived growth factor receptor alpha (Homo sapiens) (UniProt P16234); assay: Inhibition of PDGFRA assessed as enzyme activity at 1 uM relative to untreated control; set-up: scale not given: the % may be the effect or the level left
[24] = biological target: Tyrosine-protein kinase ABL2 (Homo sapiens) (UniProt P42684); assay: Inhibition of ABL2 assessed as enzyme activity at 1 uM relative to untreated control; set-up: scale not given: the % may be the effect or the level left
[25] = biological target: cGMP-dependent protein kinase 2 (Homo sapiens) (UniProt Q13237); assay: Inhibition of PRKG2 assessed as enzyme activity at 1 uM relative to untreated control; set-up: scale not given: the % may be the effect or the level left
[26] = biological target: Ephrin type-B receptor 4 (Homo sapiens) (UniProt P54760); assay: Inhibition of EPHB4 assessed as enzyme activity at 1 uM relative to untreated control; set-up: scale not given: the % may be the effect or the level left
Sequence of Ephrin type-B receptor 4 (Homo sapiens) (P54760 whole entry, canonical isoform): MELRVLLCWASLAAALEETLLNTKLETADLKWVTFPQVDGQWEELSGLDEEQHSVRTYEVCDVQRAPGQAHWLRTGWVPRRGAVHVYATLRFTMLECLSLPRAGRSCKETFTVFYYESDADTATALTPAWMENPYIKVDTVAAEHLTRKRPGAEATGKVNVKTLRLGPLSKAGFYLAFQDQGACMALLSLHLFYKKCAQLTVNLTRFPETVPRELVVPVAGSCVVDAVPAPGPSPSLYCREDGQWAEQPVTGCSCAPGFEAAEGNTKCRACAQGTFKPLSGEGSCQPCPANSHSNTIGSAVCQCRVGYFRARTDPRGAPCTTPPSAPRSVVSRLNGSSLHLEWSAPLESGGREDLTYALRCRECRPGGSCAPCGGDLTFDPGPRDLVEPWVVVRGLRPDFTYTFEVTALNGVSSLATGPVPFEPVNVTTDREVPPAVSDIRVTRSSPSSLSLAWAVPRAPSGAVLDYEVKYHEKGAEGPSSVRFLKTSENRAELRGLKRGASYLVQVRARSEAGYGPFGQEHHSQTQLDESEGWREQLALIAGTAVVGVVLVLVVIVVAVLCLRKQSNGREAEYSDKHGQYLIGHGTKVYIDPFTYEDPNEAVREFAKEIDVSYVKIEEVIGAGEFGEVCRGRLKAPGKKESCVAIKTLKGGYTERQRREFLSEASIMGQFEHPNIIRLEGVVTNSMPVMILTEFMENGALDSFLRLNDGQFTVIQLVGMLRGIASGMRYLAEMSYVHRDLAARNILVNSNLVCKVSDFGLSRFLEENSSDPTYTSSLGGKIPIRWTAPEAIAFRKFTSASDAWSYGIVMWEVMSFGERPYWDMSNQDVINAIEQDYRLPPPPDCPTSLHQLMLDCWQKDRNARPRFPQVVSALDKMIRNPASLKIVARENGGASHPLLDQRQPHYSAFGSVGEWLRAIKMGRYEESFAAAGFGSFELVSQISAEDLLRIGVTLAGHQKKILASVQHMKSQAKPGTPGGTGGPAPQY

[27] = biological target: Phosphatidylinositol 4,5-bisphosphate 3-kinase catalytic subunit gamma isoform (Homo sapiens) (UniProt P48736); assay: Inhibition of PIK3CG assessed as enzyme activity at 1 uM relative to untreated control; set-up: scale not given: the % may be the effect or the level left
A-375 = assay: Antitumor activity against human A375 SQ2 cells xenografted in CD1 mouse assessed as inhibition of tumor growth at 2 mg/kg, po qd for 14 days; assay type: functional; conditions: A375-SQ2, 336 h
[28] = biological target: MAP kinase-activated protein kinase 2 (Homo sapiens) (UniProt P49137); assay: Inhibition of MAPKAPK2 assessed as enzyme activity at 1 uM relative to untreated control; set-up: scale not given: the % may be the effect or the level left
[29] = biological target: Mitogen-activated protein kinase 4 (Homo sapiens) (UniProt P31152); assay: Inhibition of ERK4 assessed as enzyme activity at 1 uM relative to untreated control; set-up: scale not given: the % may be the effect or the level left
Sequence of Mitogen-activated protein kinase 4 (Homo sapiens) (P31152 whole entry): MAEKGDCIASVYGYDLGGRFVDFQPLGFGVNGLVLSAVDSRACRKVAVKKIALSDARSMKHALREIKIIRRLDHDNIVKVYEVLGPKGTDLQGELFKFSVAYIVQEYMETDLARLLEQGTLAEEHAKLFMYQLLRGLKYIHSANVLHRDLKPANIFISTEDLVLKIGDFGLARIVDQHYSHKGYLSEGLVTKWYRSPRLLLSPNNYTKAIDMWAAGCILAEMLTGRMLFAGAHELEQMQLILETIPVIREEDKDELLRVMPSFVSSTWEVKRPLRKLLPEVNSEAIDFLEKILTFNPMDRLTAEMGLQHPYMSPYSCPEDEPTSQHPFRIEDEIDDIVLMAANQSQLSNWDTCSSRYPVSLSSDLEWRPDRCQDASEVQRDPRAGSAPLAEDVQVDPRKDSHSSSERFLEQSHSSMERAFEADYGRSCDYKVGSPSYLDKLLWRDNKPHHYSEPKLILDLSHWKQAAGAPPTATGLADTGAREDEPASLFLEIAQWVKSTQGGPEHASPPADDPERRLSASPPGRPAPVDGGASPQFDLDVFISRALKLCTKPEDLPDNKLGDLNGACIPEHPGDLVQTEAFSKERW

[30] = biological target: Proto-oncogene tyrosine-protein kinase Src (Homo sapiens) (UniProt P12931); assay: Inhibition of SRC assessed as enzyme activity at 1 uM relative to untreated control; set-up: scale not given: the % may be the effect or the level left
Sequence of Proto-oncogene tyrosine-protein kinase Src (Homo sapiens) (P12931 2-536 limits assumed): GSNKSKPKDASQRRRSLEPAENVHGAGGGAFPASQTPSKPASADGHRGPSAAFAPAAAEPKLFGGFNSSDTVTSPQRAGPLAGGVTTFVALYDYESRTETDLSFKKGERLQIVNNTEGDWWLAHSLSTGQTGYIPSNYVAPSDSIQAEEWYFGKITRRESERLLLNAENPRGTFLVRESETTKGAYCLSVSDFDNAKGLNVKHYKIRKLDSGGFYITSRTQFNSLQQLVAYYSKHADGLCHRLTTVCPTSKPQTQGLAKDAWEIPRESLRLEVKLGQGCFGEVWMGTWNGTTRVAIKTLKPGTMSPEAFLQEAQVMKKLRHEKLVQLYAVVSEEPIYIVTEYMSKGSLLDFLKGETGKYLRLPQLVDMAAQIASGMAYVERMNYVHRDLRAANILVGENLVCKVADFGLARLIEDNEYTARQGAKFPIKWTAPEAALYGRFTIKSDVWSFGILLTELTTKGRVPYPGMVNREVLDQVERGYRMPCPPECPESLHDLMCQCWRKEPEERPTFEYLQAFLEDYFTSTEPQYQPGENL

[31] = biological target: Tyrosine-protein kinase Fes/Fps (Homo sapiens) (UniProt P07332); assay: Inhibition of FES assessed as enzyme activity at 1 uM relative to untreated control; set-up: scale not given: the % may be the effect or the level left
Sequence of Tyrosine-protein kinase Fes/Fps (Homo sapiens) (P07332 whole entry): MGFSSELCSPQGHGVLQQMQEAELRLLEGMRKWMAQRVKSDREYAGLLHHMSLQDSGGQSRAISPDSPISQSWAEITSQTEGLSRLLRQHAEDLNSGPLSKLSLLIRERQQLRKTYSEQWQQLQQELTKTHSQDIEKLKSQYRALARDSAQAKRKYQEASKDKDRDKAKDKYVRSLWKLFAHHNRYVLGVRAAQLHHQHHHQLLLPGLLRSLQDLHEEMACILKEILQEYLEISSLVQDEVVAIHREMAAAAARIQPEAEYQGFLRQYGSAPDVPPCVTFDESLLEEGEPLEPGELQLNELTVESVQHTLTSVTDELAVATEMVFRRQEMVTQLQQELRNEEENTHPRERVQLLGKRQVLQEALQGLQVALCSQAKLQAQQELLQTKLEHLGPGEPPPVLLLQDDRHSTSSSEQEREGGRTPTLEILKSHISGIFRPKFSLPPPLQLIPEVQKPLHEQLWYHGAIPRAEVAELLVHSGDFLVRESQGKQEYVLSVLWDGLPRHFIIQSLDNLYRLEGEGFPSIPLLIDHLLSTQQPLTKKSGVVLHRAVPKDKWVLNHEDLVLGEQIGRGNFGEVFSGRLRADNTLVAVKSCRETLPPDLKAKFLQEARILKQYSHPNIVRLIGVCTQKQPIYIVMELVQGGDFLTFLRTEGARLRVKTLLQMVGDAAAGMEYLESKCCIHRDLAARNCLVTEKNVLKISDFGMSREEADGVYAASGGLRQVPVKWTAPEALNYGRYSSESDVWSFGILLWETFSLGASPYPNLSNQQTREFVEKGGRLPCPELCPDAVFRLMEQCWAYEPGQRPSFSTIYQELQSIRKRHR

[32] = biological target: Serine/threonine-protein kinase 25 (Homo sapiens) (UniProt O00506); assay: Inhibition of YSK1 assessed as enzyme activity at 1 uM relative to untreated control; set-up: scale not given: the % may be the effect or the level left
[33] = biological target: Non-receptor tyrosine-protein kinase TYK2 (Homo sapiens) (UniProt P29597); assay: Inhibition of TYK2 kinase domain 2 assessed as enzyme activity at 1 uM relative to untreated control; set-up: scale not given: the % may be the effect or the level left
[34] = biological target: Phosphorylase b kinase gamma catalytic chain, skeletal muscle/heart isoform (Homo sapiens) (UniProt Q16816); assay: Inhibition of PHKG1 assessed as enzyme activity at 1 uM relative to untreated control; set-up: scale not given: the % may be the effect or the level left
[35] = biological target: Serine/threonine-protein kinase PAK 3 (Homo sapiens) (UniProt O75914); assay: Inhibition of PAK3 assessed as enzyme activity at 1 uM relative to untreated control; set-up: scale not given: the % may be the effect or the level left

For `Cc1ccc2c(Nc3ccc(Cl)cc3)nccc2c1Nc1ncccc1-c1ncnc2[nH]cnc12.Cl.Cl.Cl`, the Activity [1] was 100%, the Activity [2] was 100% and the Activity [3] was 84%. It also gave an Activity [4] of 98%, an Activity [5] of 100% and an Activity [6] of 100%. For the same molecule, the Activity [7] was 47%, the Activity [8] was 90% and the Activity [9] was 99%. The half-life [10] was 3.5 h, the Activity [11] was 100% and the Activity [12] was 100%. It also gave an Activity [13] of 100%, an Activity [14] of 100% and an Activity [15] of 100%. It also gave an Activity [16] of 100%, an Activity [17] of 96% and an Activity [18] of 95%. It also gave an Activity [19] of 85%, an Activity [20] of 100% and an Activity [21] of 89%. It also gave an Activity [22] of 100%, an Activity [23] of 88% and an Activity [24] of 42%. The Activity [25] was 100%, the Activity [26] was 6.5% and the Activity [27] was 100%. For the same molecule, the inhibition in vivo at 2 mg/kg (A-375) was 90%, the Activity [28] was 100% and the Activity [29] was 100%. For the same molecule, the Activity [30] was 73%, the Activity [31] was 100% and the Activity [32] was 100%. The Activity [33] was 28%, the Activity [34] was 99% and the Activity [35] was 87%.
